From PubChem BioAssay AID330 (DTP/NCI, 2004)
“And” between values parts separate entries of the source, which are not always exact repeats. Equal entries are not always repeated. Toxic doses and inconclusive results are not listed. The calls were made as follows: active = survival T/C of 150% or more; inactive = T/C below 125% in these data.

Tested on: P388 leukemia ip, CD2F1 mice, survival T/C
Assay: NCI In Vivo Anticancer Drug Screen. Data for tumor model P388 Leukemia (intraperitoneal) in CD2F1 (CDF1) mice
Conditions: endpoint: median survival time, higher = longer survival
Outline: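 Mice carrying the transplanted tumor received test compound or vehicle. Survival was recorded in each group, and the value is the treated-group measurement divided by that of the vehicle-treated control group.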

[1] = dose: 50.0 mg/kg/injection, schedule: Q01DX009 (ip), vehicle: Klucel (hydroxypropylcellulose) (HPC)
[2] = dose: 100.0 mg/kg/injection, schedule: Q01DX009 (ip), vehicle: Klucel (hydroxypropylcellulose) (HPC)
[3] = dose: 200.0 mg/kg/injection, schedule: Q01DX009 (ip), vehicle: Klucel (hydroxypropylcellulose) (HPC)
[4] = dose: 12.5 mg/kg/injection, schedule: Q01DX009 (ip), vehicle: Klucel (hydroxypropylcellulose) (HPC)
[5] = dose: 25.0 mg/kg/injection, schedule: Q01DX009 (ip), vehicle: Klucel (hydroxypropylcellulose) (HPC)
[6] = dose: 50.0 mg/kg/injection, schedule: Q01DX005 (ip), vehicle: saline with Tween-80
[7] = dose: 100.0 mg/kg/injection, schedule: Q01DX005 (ip), vehicle: saline with Tween-80
[8] = dose: 200.0 mg/kg/injection, schedule: Q01DX005 (ip), vehicle: saline with Tween-80

Measured: T/C

CN(C)[C@@H]1C(=O)C(C(=O)NCNC2(C(=O)O)CCCC2)=C(O)[C@@]2(O)C(=O)C3=C(O)c4c(O)cccc4[C@@](C)(O)[C@H]3C[C@@H]12
inactive: dose: 50.0 mg/kg/injection, schedule: Q01DX009 (ip), vehicle: saline 103 % of control | dose: 100.0 mg/kg/injection, schedule: Q01DX009 (ip), vehicle: saline 95 % of control | dose: 100.0 mg/kg/injection, schedule: Q01DX009 (ip), vehicle: suspension in saline 91 % of control | dose: 200.0 mg/kg/injection, schedule: Q01DX009 (ip), vehicle: saline 106 % of control | dose: 200.0 mg/kg/injection, schedule: Q01DX009 (ip), vehicle: suspension in saline 93 % of control | dose: 400.0 mg/kg/injection, schedule: Q01DX009 (ip), vehicle: saline 98 % of control | dose: 400.0 mg/kg/injection, schedule: Q01DX009 (ip), vehicle: suspension in saline 111 % of control

Oc1ccc(Cl)cc1CN1CCN(Cc2cc(Cl)ccc2O)CC1
inactive: dose: 15.0 mg/kg/injection, schedule: Q01DX005 (ip), vehicle: saline with Tween-80 100 % of control | dose: 30.0 mg/kg/injection, schedule: Q01DX005 (ip), vehicle: saline with Tween-80 97 % of control | dose: 60.0 mg/kg/injection, schedule: Q01DX005 (ip), vehicle: saline with Tween-80 89 % of control

CC(=N)C(C#N)C(=S)SCCC#N (stereo not drawn)
inactive: [1] 97 % of control | [2] 89 % of control | [3] 106 % of control

CC(=O)NC1C(OC(C)=O)OC(C[Se][As](C)C)C(OC(C)=O)C1OC(C)=O (stereo not drawn)
inactive: [1] 105 % of control | [2] 110 % of control

CCCCCCCCCCCC(C)NCc1ccccc1 (stereo not drawn)
inactive: dose: 6.25 mg/kg/injection, schedule: Q01DX009 (ip), vehicle: Klucel (hydroxypropylcellulose) (HPC) 103 % of control | [4] 112 % of control | [5] 99 % of control | [1] 105 % of control

O=C(Nc1cccc(Cl)c1)OCCN1CCNC1=S
inactive: [1] 116 % of control | [2] 106 % of control | [3] 105 % of control

CC(=O)Nc1cccc(/C(C)=N/NC(N)=O)c1
inactive: [6] 91 % of control | [7] 91 % of control | [8] 89 % of control

Cc1cc(OC(=O)N2CCCCC2)c(C(C)C)cc1[N+](C)(C)C
inactive: dose: 0.02 mg/kg/injection, schedule: Q01DX009 (ip), vehicle: saline 100 % of control | dose: 0.03 mg/kg/injection, schedule: Q01DX009 (ip), vehicle: saline 100 % of control | dose: 0.06 mg/kg/injection, schedule: Q01DX009 (ip), vehicle: saline 90 % of control

CC(=O)OCC1OC(Nc2[nH]c(=O)nc3occc23)C(OC(C)=O)C(OC(C)=O)C1OC(C)=O (stereo not drawn)
inactive: dose: 100.0 mg/kg/injection, schedule: Q01DX001 (ip), vehicle: saline with Tween-80 107 % of control | dose: 200.0 mg/kg/injection, schedule: Q01DX001 (ip), vehicle: saline with Tween-80 99 % of control | dose: 400.0 mg/kg/injection, schedule: Q01DX001 (ip), vehicle: saline with Tween-80 97 % of control

O=c1ccn2c(=O)n1CCCCn1cnc3ncnc(c31)SCCC2
inactive: dose: 50.0 mg/kg/injection, schedule: Q01DX001 (ip), vehicle: Klucel (hydroxypropylcellulose) (HPC) 94 % of control | dose: 100.0 mg/kg/injection, schedule: Q01DX001 (ip), vehicle: Klucel (hydroxypropylcellulose) (HPC) 86 % of control | dose: 200.0 mg/kg/injection, schedule: Q01DX001 (ip), vehicle: Klucel (hydroxypropylcellulose) (HPC) 90 % of control | dose: 400.0 mg/kg/injection, schedule: Q01DX001 (ip), vehicle: Klucel (hydroxypropylcellulose) (HPC) 90 % of control

CN=C(c1ccc(NC(=O)c2cc(C(=O)Nc3ccc(C(=NC)N(C)C)cc3)cc([N+](=O)[O-])c2)cc1)N(C)C
inactive: dose: 6.25 mg/kg/injection, schedule: Q01DX005 (ip), vehicle: saline 101 % of control | dose: 12.5 mg/kg/injection, schedule: Q01DX005 (ip), vehicle: saline 98 % of control

Oc1c(-c2ccccc2)nn(O)c1-c1ccccc1
inactive: [4] 106 % of control | [5] 100 % of control | [1] 95 % of control

CN(C)c1nc(O)c(N=O)c(=O)[nH]1
inactive: dose: 50.0 mg/kg/injection, schedule: Q04DX002 (ip), vehicle: suspension in saline 100 % of control | dose: 100.0 mg/kg/injection, schedule: Q04DX002 (ip), vehicle: suspension in saline 107 % of control | dose: 200.0 mg/kg/injection, schedule: Q04DX002 (ip), vehicle: suspension in saline 108 % of control

CCOC(=O)C1(Br)CC2(C1)CC(Br)(C(=O)OCC)C2 (stereo not drawn)
inactive: dose: 100.0 mg/kg/injection, schedule: Q04DX002 (ip), vehicle: saline with Tween-80 101 % of control | dose: 200.0 mg/kg/injection, schedule: Q04DX002 (ip), vehicle: saline with Tween-80 103 % of control | dose: 400.0 mg/kg/injection, schedule: Q04DX002 (ip), vehicle: saline with Tween-80 100 % of control

CC(=O)N(C)C
inactive: dose: 0.25 % in 0.5 ml injection vol, schedule: Q01DX009 (ip), vehicle: water 102 % of control | dose: 0.5 % in 0.5 ml injection vol, schedule: Q01DX009 (ip), vehicle: water 100 % of control and 102 % of control | dose: 1.0 % in 0.5 ml injection vol, schedule: Q01DX009 (ip), vehicle: water 99 % of control and 102 % of control | dose: 2.0 % in 0.5 ml injection vol, schedule: Q01DX009 (ip), vehicle: water 100 % of control and 101 % of control | dose: 8.0 % in 0.5 ml injection vol, schedule: Q01DX009 (ip), vehicle: water 112 % of control and 113 % of control | dose: 16.0 % in 0.5 ml injection vol, schedule: Q01DX009 (ip), vehicle: water 108 % of control

CC1(C)Cc2[nH]c3ccccc3c(=O)c2-c2nc3ccccc3c(=O)n21
inactive: dose: 12.5 mg/kg/injection, schedule: Q01DX005 (ip), vehicle: Klucel (hydroxypropylcellulose) (HPC) 98 % of control | dose: 25.0 mg/kg/injection, schedule: Q01DX005 (ip), vehicle: Klucel (hydroxypropylcellulose) (HPC) 88 % of control | dose: 50.0 mg/kg/injection, schedule: Q01DX005 (ip), vehicle: Klucel (hydroxypropylcellulose) (HPC) 90 % of control | dose: 100.0 mg/kg/injection, schedule: Q01DX005 (ip), vehicle: Klucel (hydroxypropylcellulose) (HPC) 98 % of control | dose: 200.0 mg/kg/injection, schedule: Q01DX005 (ip), vehicle: Klucel (hydroxypropylcellulose) (HPC) 116 % of control

Nc1ccccc1-c1nc2ccncc2[nH]1
inactive: [5] 102 % of control | [1] 105 % of control | [2] 101 % of control | [3] 100 % of control

CCOC(=O)CCC[P+](c1ccccc1)(c1ccccc1)c1ccccc1
inactive: dose: 5.33 mg/kg/injection, schedule: Q01DX009 (ip), vehicle: saline with Tween-80 109 % of control | dose: 8.0 mg/kg/injection, schedule: Q01DX009 (ip), vehicle: saline with Tween-80 118 % of control | dose: 12.0 mg/kg/injection, schedule: Q01DX009 (ip), vehicle: saline with Tween-80 109 % of control

CCOC(=O)C1(C)Sc2ccccc2N=C1c1ccccc1 (stereo not drawn)
inactive: dose: 60.0 mg/kg/injection, schedule: Q01DX005 (ip), vehicle: saline + Tween-80 + alcohol 98 % of control | dose: 120.0 mg/kg/injection, schedule: Q01DX005 (ip), vehicle: saline + Tween-80 + alcohol 93 % of control | dose: 240.0 mg/kg/injection, schedule: Q01DX005 (ip), vehicle: saline + Tween-80 + alcohol 89 % of control

CC(C)C(=O)c1ccco1
inactive: dose: 3.13 mg/kg/injection, schedule: Q01DX009 (ip), vehicle: saline with Tween-80 90 % of control | dose: 6.25 mg/kg/injection, schedule: Q01DX009 (ip), vehicle: saline with Tween-80 100 % of control | dose: 12.5 mg/kg/injection, schedule: Q01DX009 (ip), vehicle: saline with Tween-80 100 % of control

O=[N+]([O-])c1cccc(S(=O)(=O)N/N=C\c2cc([N+](=O)[O-])ccc2O)c1
inactive: [6] 107 % of control | [7] 100 % of control | [8] 97 % of control
